How the values were obtained:
[1] = system: Tetranychus urticae; assay: Efficacy test against Tetranychus urticae (spray on common beans); type: in vivo; settings: 125 ppm by mass, sprayed on common beans; female adults; 25° C., humidity 65%; 10 days after spraying
[2] = system: Tetranychus kanzawai; assay: Efficacy test against Tetranychus kanzawai (spray on mung beans); type: in vivo; settings: 125 ppm by mass, sprayed on mung beans; female adults; 25° C., humidity 65%; 10 days after spraying

Q: With `CSCC1CCN(C(=O)c2cc(C#N)c(-c3ccc(C(F)(F)F)cc3)nc2C)CC1` [a-90] as the molecule, how does the acaricidal rate [1] read?
A: Its acaricidal rate is “a-90%”.

Q: And the acaricidal rate [2]?
A: The acaricidal rate was “a-90%”.

Q: With `CCSCC1CCN(C(=O)c2cc(C#N)c(-c3ccc(C(F)(F)F)cc3)nc2CSC)CC1` [a-190] as the molecule, how does the acaricidal rate [1] read?
A: Its acaricidal rate is “a-190%”.

Q: How did the acaricidal rate [1] turn out when `CCSCC1CCN(C(=O)c2cc(C(N)=S)c(-c3ccc(C(F)(F)F)cc3)nc2C(F)(F)C(F)(F)F)CC1` [b-90] was run?
A: The acaricidal rate was “b-90%”.
